The molecules below were run on S. cerevisiae LAP4-GFP reporter, flow cytometry fluorescence (assay: LAP4-GFP modulation potency in yeast, dose response, cell-based, MLPCN hits, flow cytometry (AID 2745);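 also: yeast exposed to compound for three hours at 30 degrees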).

Compound | EC50 [µM]
O=S1(=O)C=C(Sc2nc3ccccc3s2)c2ccccc21 | 3.29
O=C(Nc1ccc(Cl)cc1)ON=C1CCCC1 | 3.95
CC(C)(C)n1nc(-c2ccc(Cl)cc2)c2c(N)ncnc21 | 4.82
CC(Oc1ccc(Cl)cc1)C(=O)NNC(=S)NC(=O)c1ccco1 (configuration not stated) | 7.2
O=C1Oc2ccccc2C(=O)/C1=C/c1ccccc1O | 3.75
Cc1ccc(C2=NOC(=O)/C2=C\c2ccc(C)o2)cc1 | 4.47
O=C(CCc1ccccc1)NNC(=S)NC(=O)c1ccccc1 | 32.2
COc1ccc(C2=CC(=O)N(Nc3ccccc3)C2=O)cc1 | 9.78
O=[N+]([O-])c1cc(O)c2ncccc2c1 | 9.88
O=C1NC(=S)NC(=O)C1=Cc1ccc2c(c1)CCN2CCCCl | 4.06
O=C1C=CC(=O)N1N(c1ccccc1)c1ccccc1 | 2.7
COc1ccc(N2C(=O)/C(=C/c3cccs3)C(=O)NC2=S)cc1 | 1.32
Cc1cccc2c1NC(=O)/C2=C\C(=O)c1cccs1 | 5.59
CCc1cc(C(=O)Nc2nc(-c3ccccn3)cs2)sc1C | 5.96
Cc1cc(C)c(S(=O)(=O)ON2C(=O)c3ccccc3C2=O)cc1C | 3.12
Cc1ccc(/C=C2\C(=O)NC(=S)N(c3ccc(F)cc3)C2=O)s1 | 1.15
COc1ccc(N=Nc2ccc(O)c3ncccc23)cc1 | 6.43
Oc1ccc(Br)cc1/C=N/Nc1ccccn1 | 22.7
O=C1ON=C(c2ccccc2)/C1=C\c1ccco1 | 3.67
CCn1c(=O)c(C(=O)Nc2nc3ccccc3[nH]2)c(O)c2ccccc21 | 0.45
Cc1[nH]c(-c2ccccn2)nc(=S)c1Cl | 4.58

Compound | EC50 [µM]
Cc1[nH]n(-c2ccccc2)c(=O)c1C(c1ccccc1[N+](=O)[O-])C(C#N)C#N (configuration not stated) | 7.67
CC(C)(C)c1ccc(NC(=O)COC(=O)c2ccc([N+](=O)[O-])s2)cc1 | 3.72
Cc1cc(O)c(C(=O)/C=C/c2ccc(Cl)cc2)c(=O)o1 | 6.38
COc1cccc(/C=N/Nc2ccc([N+](=O)[O-])cn2)c1O | 5.73
CCOC(=O)COc1ccc2ccccc2c1/C=C/[N+](=O)[O-] | 4.41
O=C(COc1ccc(F)cc1Cl)Nc1nc(-c2ccccn2)cs1 | 2.98
O=S(=O)(CCN(CCS(=O)(=O)C(F)(F)F)CC1CCCO1)C(F)(F)F (configuration not stated) | 7.67
Cc1ccc(NC(=O)c2ccc(Cl)c(N3C(=O)C=CC3=O)c2)cc1 | 1.59
CCCOc1ccc(C(=O)NNC(=S)NC(=O)CC)cc1 | 11.5
N/C(Cc1ccc(Cl)cc1Cl)=N\OC(=O)c1cccs1 | 4.48
CCCCC(=O)NNC(=S)NC(=O)c1ccc(C)cc1 | 11.3
O=C(/C=C/c1ccc(F)cc1)NC(=S)NNC(=O)c1cnccn1 | 1.54
COc1ccc(C(=O)NC(=S)NNC(=O)c2cnccn2)cc1 | 1.32
CCOc1ccc(N2C(=O)/C(=C\c3cccs3)C(=O)NC2=S)cc1 | 1.96
CNC(CC(=O)c1ccc([N+](=O)[O-])cc1)C(Cl)(Cl)Cl (configuration not stated) | 1.34
CCOC(=O)/C(=C\c1cn(C)c2ccccc12)[N+](=O)[O-] | 2.24
CCc1ccc(OCC(=O)NNC(=S)NC(=O)C2CC2)c(Br)c1 | 5.45
Oc1c(I)cc(Cl)c2cccnc12 | 0.986
CNc1nc(N)c([N+](=O)[O-])c(Nc2cccc(F)c2)n1 | 5.5
COc1ccccc1N=Nc1ccc(O)c2ncccc12 | 4.25
Cc1cccc(Nc2nc(-c3ccccn3)cs2)n1 | 3.79

Compound | EC50 [µM]
CC(C)(C)c1nnc(N/N=C/c2cc(Br)ccc2O)n(N)c1=O | 12.2
O=C(Nc1nnc(-c2ccc(Cl)cc2)o1)c1ccccc1Br | 4.31
O=C(/C=C/c1ccc(Cl)c([N+](=O)[O-])c1)c1cccnc1 | 28.6
Cc1ccc(S(=O)(=O)c2ncccc2[N+](=O)[O-])cc1 | 14.6
CCc1ccc2c(c1)/C(=C/C(=O)c1cccs1)C(=O)N2 | 4.07
Cc1cc(C(=O)Nc2nc(-c3ccccn3)cs2)ccc1[N+](=O)[O-] | 6.15
O=C(Nc1ccccc1)c1nnsc1S(=O)(=O)c1ccc(Cl)cc1 | 0.564
COc1ccc([N+](=O)[O-])c(S(=O)(=O)c2ccc(Cl)cc2)n1 | 1.99
COc1ccc(/C=C2\C(=O)ON=C2c2ccccc2)cc1 | 6.86
O=[N+]([O-])c1cc(Cl)c2cccnc2c1O | 0.859
O=C(c1ccc(C(=O)N2CCCc3ccccc32)s1)N1CCCc2ccccc21 | 7.77
CC1=NOC(=O)/C1=C\c1ccc(-c2cc(Cl)ccc2Cl)o1 | 26.8
O=C1c2ccccc2C(=O)C2OC12 (configuration not stated) | 19.6
O=C1C=CC(=O)N1c1ccc(N2CCCCC2)cc1 | 1.24
Clc1cccc(CN2COc3c(cc(Cl)c4cccnc34)C2)c1 | 8.55
O=c1cc(CSc2ccc(Cl)cc2)nc(-c2ccccn2)[nH]1 | 6.28
CC1=NNC(=O)/C1=C\c1cn(-c2ccccc2)nc1-c1cccs1 | 1.32
CC(C)(C)n1nc(-c2ccc(F)cc2)c2c(N)ncnc21 | 3.51
N/C(Cc1ccc(Cl)cc1)=N\OC(=O)c1cccc2ccccc12 | 1.88
Oc1ccc2ccccc2c1N=Nc1nccs1 | 8.45

From PubChem BioAssay AID2745 (NMMLSC, 2010)
